Measurements taken from US10633367B2, “Fluorine- and/or deuterium-containing compounds for treating non-small cell lung cancer and related diseases” (X-Cutag Therapeutics, Inc., priority 2017, dated 2020).

Experiments:
[1] = test system: NCI-H1975 NSCLC cells carrying activating EGFR T790M mutation; assay: Cell viability of NCI-H1975 cells (CCK-8 assay); format: cell-based, human; settings: 36 hour treatment, CCK-8, FIG. 13
Procedure: NCI-H1975 is a model human NSCLC cell line that expresses activating EGER-T790M mutant, resulting in uncontrolled cell proliferation. Efficient inhibition of EGFR tyrosine kinase activity by TKI can affect cell growth, causing cell death. Here the inventors studied the effect of F1-osimertinib on cell viability of NCI-H1975 cells by […] (Cell Counting Kit-8 (CCK-8), Bimake.com, Houston, Tex.). 4,000 exponentially growing cells in 100 ul culture media were seeded in triplicate into 96-well plates and cultured to 70-80% continency. Cells were treated with indicated concentration of F1-osimertinib for 36 hour. 10 ul/well CCK-8 were added and continuously incubated till the absorbance (OD) at 450 nm reaches 0.8 measured by a microplate reader. Medium only wells were served as blank control. The cell viability was calculated as follows: Cell viability (%)=[A(F1-osimertinib)−A(blank)]/[A(solvent)−A(blank)]×100%. A: OD value measured.

[2] = Co-incubation in human plasma (ex-vivo stability, LC-MS/MS); format: in vitro ADME; settings: co-dosed with osimertinib at 1:1 ratio, 0 to 120 minutes, FIG. 9
Procedure: (§1) Briefly, 40 μL of osimertinib was co-incubated with an equal volume of one of the compounds described in this invention at the same concentration in blank plasma (human, beagle dog, Sprague-Dawley rat or CD-1 mouse). The tubes were incubated in a dry bath incubator for six time points ranging from 0 to 120 minutes. At each time point, the plasma was crashed with 200 μL internal standard working solution in acetonitrile, then vortexes and centrifuged. A portion of the supernatant was then transferred to autosampler vials for injection into the LC-MS/MS system. Chromatographic retention of osimertinib and the compounds described in the invention was obtained on an ACE 3 C18, 2.1×50 min, 3.0 μm column (Aberdeen, Scotland) under gradient conditions with a flow rate of 0.3 mL/minute. Analytes were detected by multiple reaction monitoring using an MDS Sciex API 4000 mass spectrometer (Applied Biosystems/MDS Sciex, Concord, Ontario, Canada) in positive mode. Data was captured using Analyst®, Version 1.6.2 (Applied Biosystems/MDS Sciex, Foster City, Calif.) and then exported to Excel® (Microsoft, Seattle, Wash.) for further data reduction.

[3] = Co-incubation in mouse plasma (ex-vivo stability, LC-MS/MS); format: in vitro ADME, CD-1 mouse; settings: after incubating for two hours, co-incubated, FIG. 12
Procedure: as §1

[4] = Co-incubation in rat plasma (ex-vivo stability, LC-MS/MS); format: in vitro ADME, Sprague-Dawley rat; settings: after incubating for two hours, co-incubated, FIG. 10
Procedure: as §1

[5] = Co-incubation in dog plasma (ex-vivo stability, LC-MS/MS); format: in vitro ADME; settings: beagle plasma, after incubating for two hours, co-incubated, FIG. 11
Procedure: as §1

| stability when incubated in human plasma [2] | remaining percentage [3] [%] | remaining percentage of the initial concentration [4] | remaining percentage of the initial concentration [5] | Compound | inhibition of NSCLC cell growth (cell viability) [1] |
| --- | --- | --- | --- | --- | --- |
|  |  |  |  | [2H]C([2H])([2H])n1cc(-c2ccnc(Nc3cc(NC(=O)C(=C)F)c(N(C)CCN(C)C)cc3OC)n2)c2ccccc21 [F1-D3-osimertinib] | significant inhibition of NSCLC cell growth |
|  |  |  |  | C=C(F)C(=O)Nc1cc(Nc2nccc(-c3cn(C)c4ccccc34)n2)c(OC)cc1N(C)CCN(C)C [F1-osimertinib] | significant inhibition of NSCLC cell growth |
| decreased rapidly | 92 | around 35% | approximately 78% | C=CC(=O)Nc1cc(Nc2nccc(-c3cn(C)c4ccccc34)n2)c(OC)cc1N(C)CCN(C)C [osimertinib, N-(2-{2-dimethylaminoethyl-methylamino}-4-methoxy-5-{[4-(1-methylindol-3-yl)pyrimidin-2-yl]amino}phenyl)prop-2-enamide] |  |
